Where two headings read alike, the source gives them in different places.
Key:
House Fly = assay: Adult House Fly Assay (AhsF); set-up: species or system Musca domestica; conditions: House Fly, 24 h
Description: Adult Stable or House Fly Assay (ASF, AhsF). This assay is conducted essentially as described in White, W. H., S. M. Bauer, X. Zhao et al., Comparison of in vitro and in vivo ectoparasiticide activity of an experimental benzimidazole-carbamate with permethrin and amitraz, J. Med. Entomol. 42, 207-211 (2005); and White, W. H., C. M. McCoy, J. A. Meyer et al., Knockdown and mortality comparisons among spinosad-, imidacloprid-, and methomyl-containing baits against susceptible Musca domestica (Diptera: Muscidae) under laboratory conditions, J. Econ. Entomol. 100, 155-163 (2007).
Test material is formulated in DMSO at 10 mM. Doubling dilutions in like solvent are made to yield 10 testing levels. Materials are diluted in either bovine serum (stable flies) or 5% glucose solution (house flies) to obtain desired exposure concentrations from 200-0.39 μM. Approximately 3 ml of diluted test material is placed into a test tube (n=3 per test level) and a dental wick is used to absorb fluid. One dental wick is placed into a small weigh boat inside of a 100 mm Petri dish. Approximately 10 mixed-sex adult flies are anesthetized using carbon dioxide and counted into each dish. Dishes are incubated at 27° C. and 50-70% relative humidity. Flies recover from anesthesia and feed on compound-soaked dental wicks. After 24 h, live/dead flies are enumerated. Nonlinear regression is used to model dose-mortality relationship and obtain relative potency (LD50) data compared to contemporaneous controls (solvent-only or permethrin).

house flies = test system: house flies
Description: Knockdown and residual efficacy testing and comparison of spinetoram with Elector® for controlling house flies on treated panels.
Test material concentrates of spinetoram (120 g/L suspension concentrate) and spinosad (25 g/L suspension concentrate, Elector) were diluted in distilled water to the desired testing concentrations of either 0.04% (spinetoram only) or 0.08% (both) per label recommended premise spray use rate for controlling house flies with Elector. One square foot panels, obtained from commercial building suppliers, were composed of non-treated plywood, concrete and sheet metal. A second set of both plywood and concrete substrates were primed and painted using exterior grade latex white latex paint. Diluted materials were sprayed onto panels to the point of run-off (approximately 5 seconds per panel). A total of 4 panels were tested per treatment group (n=4). House flies were anesthetized using carbon dioxide and placed inside of plastic containers secured onto panels. There were 4 sub-replicates containers per panel, each container containing 10 mixed-sex adult flies (40 flies per panel). Glucose-saturated dental wicks were secured through a hole in each cup to provide a food and water source for flies. Panels remained upright throughout testing. Fly mortality and moribundity was assessed at post-exposure intervals of 4, 8, 24, 48 and 72 hours immediately following treatment applications and again on a weekly basis for 1 month.

Boophilus annulatus = assay: Whole-body spray treatment of Boophilus annulatus infestations on cattle; assay type: in vivo
Description: C) Efficacy Testing and comparison of topically applied spinetoram with spinosad for the treatment of Boophilus annulatus infestations on cattle. Technical spinetoram and technical spinosad both formulated as 25 g/L suspension concentrate formulations similar to commercial Elector. Stability assays (HPLC and LPT bioassays) were conducted to confirm potency over extended periods of time (5 weeks) at cool and shelf-temperatures. Cattle were pre-infested 21 d prior to treatment with larval-stage B. annulatus ticks resulting the presence of very high numbers of all three life-stages of this tick at the time of treatment. Test materials were diluted to 0.025% (250 ppm) and applied to cattle as whole-body topical sprays in a volume of 10 L per animal. There were a total of six animals per treatment group (n=6). Animals were housed in covered stalls under ambient conditions of temperature and humidity. Engorged, detached adult female ticks were retrieved from animals in each stall on a daily basis. Egg masses were weighed and eggs were set for hatching to assess viability. Efficacy was measured in terms of total numbers of female ticks per animal and index of fecundity (IF).
Means were tested by General Linear Model (GLM), 1-way ANOVA. Differences (P<0.05) among means were separated using Tukey's all pairwise comparison. Means within the same column followed by different letters were significant at the P<0.05 level.
Means were tested by General Linear Model (GLM), 2-way ANOVA with parasitic life stage and treatment group as main effects. NS denotes not significant.

[1] = 4 Week Residual Activity, Sheet Metal, 400 ppm
[2] = 4 Week Residual Activity, Sheet Metal, 800 ppm
[3] = 4 Week Residual Activity, Unpainted Concrete, 400 ppm
[4] = 4 Week Residual Activity, Unpainted Concrete, 800 ppm
[5] = 4 Week Residual Activity, Unpainted Wood, 400 ppm
[6] = 4 Week Residual Activity, Unpainted Wood, 800 ppm
[7] = Initial Activity, Sheet Metal, 400 ppm
[8] = Initial Activity, Sheet Metal, 800 ppm
[9] = Initial Activity, Unpainted Concrete, 400 ppm
[10] = Initial Activity, Unpainted Concrete, 800 ppm
[11] = Initial Activity, Unpainted Wood, 400 ppm
[12] = Initial Activity, Unpainted Wood, 800 ppm
[13] = cattle, 0.025% AI whole-body spray, mean ± SD

Spinetoram
Spinetoram: Spinosad Potency Ratio (House Fly): 5.5
EC50 (House Fly; read-out: Potency (24 h EC50 μM)): 2.18 µM
% House Fly Mortality at 4 h (house flies; [1]): 0%
% House Fly Mortality at 8 h (house flies; [1]): 40.6%
% House Fly Mortality at 24 h (house flies; [1]): 91.3%
% House Fly Mortality at 48 h (house flies; [1]): 97.3%
% House Fly Mortality at 4 h (house flies; [2]): 0.6%
% House Fly Mortality at 8 h (house flies; [2]): 26.3%
% House Fly Mortality at 24 h (house flies; [2]): 80.6%
% House Fly Mortality at 48 h (house flies; [2]): 96.3%
% House Fly Mortality at 4 h (house flies; [3]): 4.2%
% House Fly Mortality at 8 h (house flies; [3]): 80.0%
% House Fly Mortality at 24 h (house flies; [3]): 100%
% House Fly Mortality at 48 h (house flies; [3]): 100%
% House Fly Mortality at 4 h (house flies; [4]): 31.3%
% House Fly Mortality at 8 h (house flies; [4]): 98.8%
% House Fly Mortality at 24 h (house flies; [4]): 100%
% House Fly Mortality at 48 h (house flies; [4]): 100%
% House Fly Mortality at 4 h (house flies; [5]): 0.6%
% House Fly Mortality at 8 h (house flies; [5]): 0.6%
% House Fly Mortality at 24 h (house flies; [5]): 4.7%
% House Fly Mortality at 48 h (house flies; [5]): 12.1%
% House Fly Mortality at 4 h (house flies; [6]): 0%
% House Fly Mortality at 8 h (house flies; [6]): 0%
% House Fly Mortality at 24 h (house flies; [6]): 22.6%
% House Fly Mortality at 48 h (house flies; [6]): 61.2%
% House Fly Mortality at 4 h (house flies; [7]): 19.7%
% House Fly Mortality at 8 h (house flies; [7]): 91.8%
% House Fly Mortality at 24 h (house flies; [7]): 100%
% House Fly Mortality at 48 h (house flies; [7]): 100%
% House Fly Mortality at 4 h (house flies; [8]): 31.5%
% House Fly Mortality at 8 h (house flies; [8]): 100%
% House Fly Mortality at 24 h (house flies; [8]): 100%
% House Fly Mortality at 48 h (house flies; [8]): 100%
% House Fly Mortality at 4 h (house flies; [9]): 45.4%
% House Fly Mortality at 8 h (house flies; [9]): 98.6%
% House Fly Mortality at 24 h (house flies; [9]): 100%
% House Fly Mortality at 48 h (house flies; [9]): 100%
% House Fly Mortality at 4 h (house flies; [10]): 42.5%
% House Fly Mortality at 8 h (house flies; [10]): 99.2%
% House Fly Mortality at 24 h (house flies; [10]): 100%
% House Fly Mortality at 48 h (house flies; [10]): 100%
% House Fly Mortality at 4 h (house flies; [11]): 1.3%
% House Fly Mortality at 8 h (house flies; [11]): 5.9%
% House Fly Mortality at 24 h (house flies; [11]): 83.7%
% House Fly Mortality at 48 h (house flies; [11]): 98.8%
% House Fly Mortality at 4 h (house flies; [12]): 0.6%
% House Fly Mortality at 8 h (house flies; [12]): 39.4%
% House Fly Mortality at 24 h (house flies; [12]): 100%
% House Fly Mortality at 48 h (house flies; [12]): 100%
activity compared to Elector (house flies; at one half the application rate, sheet metal and unpainted concrete panels): equivalent or superior to Elector
initial activity compared to Elector (house flies; unpainted plywood): equivalent initial activity
residual activity compared to Elector (house flies; unpainted plywood): marginally inferior residual activity
initial/knockdown activity against B. annulatus (Boophilus annulatus; cattle, 0.025% AI): poor
Number ♀♀ Ticks per Calf (Boophilus annulatus; [13]): 2405 ± 306 a
Total Index of Fecundity (IF) (Boophilus annulatus; [13]): 287 ± 35.4 a
Percentage Control of the IF (Boophilus annulatus; cattle, 0.025% AI whole-body spray, therapeutic efficacy): 28.0 ± 8.9 a %
Percentage control, Adult (Boophilus annulatus; parasitic life stage adult, 0.025% AI): 17.2 ± 25.0%
Percentage control, Larval (Boophilus annulatus; parasitic life stage larva, 0.025% AI): 38.6 ± 10.6%
Percentage control, Nymph (Boophilus annulatus; parasitic life stage nymph, 0.025% AI): 31.6 ± 20.8%
residual efficacy, mean percentage control of the IF, Week 1 (Boophilus annulatus; ticks infested as larvae Week 1 after treatment): 95.3 ± 3.3%
residual efficacy, mean percentage control of the IF, Week 2 (Boophilus annulatus; ticks infested as larvae Week 2 after treatment): 96.7 ± 2.3%
residual efficacy, mean percentage control of the IF, Week 3 (Boophilus annulatus; ticks infested as larvae Week 3 after treatment): 89.3 ± 8.0%
residual efficacy, mean percentage control of the IF, Week 4 (Boophilus annulatus; ticks infested as larvae Week 4 after treatment): 80.4 ± 11.5%

Source: patent US20150045313A1, “Ectoparasiticidal Methods and Formulations” (Eli Lilly and Company, priority 2009, published 2015)
